In brackets after ≈: the same amount, converted by molar mass. Where a SMILES comes first, the peptide text is derived from it.
What was measured:
[1] = Relative peptide solubility by laser nephelometry; type: physicochemical; conditions: filtered PBS with 1.5 % DMSO, maximum solubility in aqueous solution, two-fold serial dilution from DMSO stock, 200 μl, 1 hr at room temperature, laser nephelometry (forward scattered light, NEPHELOstar), duplicate wells, in solution if reading up to 3-fold the DMSO control
Method: A two-fold serial dilution of peptide in DMSO was performed, and added in duplicate to 96-well microplates. Filtered PBS was added to give a total volume of 200 μl and a final DMSO concentration of 1.5 % in all wells. The plates were incubated at room temperature for 1 hr and the relative solubility of peptides was established by measuring forward scattered light using a NEPHELOstar laser-based microplate nephelometer (BMG LABTECH). Wells containing PBS and 1.5 % DMSO only were used as blanks. Data analysis was carried out using ActivityBase, and peptides giving readings up to and including 3-fold higher than the average reading for the DMSO control were considered to be in solution at the concentrations specified.

BLV envelope = target: T1, BLV envelope (Bovine leukemia virus, UniProt P51519); experiment: Syncytium interference assay, BLV envelope-expressing HeLa effector cells; type: cell-based
T1 construct: A fragment encompassing the entire BLV envelope open reading frame; expressed in transfected cells; host or cells: HeLa (co-transfected with pRSV-Rev)
T1 sequence (P51519 302-515): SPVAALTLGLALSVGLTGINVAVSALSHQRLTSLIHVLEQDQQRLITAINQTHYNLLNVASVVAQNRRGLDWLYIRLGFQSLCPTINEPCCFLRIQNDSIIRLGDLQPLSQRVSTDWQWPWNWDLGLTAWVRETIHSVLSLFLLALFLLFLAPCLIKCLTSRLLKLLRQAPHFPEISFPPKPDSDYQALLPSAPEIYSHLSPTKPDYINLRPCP
Method: (§1) Briefly, HeLa cells for use as effector cells were transfected with the envelope expression vector pHTE-1 or with equal amounts of pCMV-BLVenv-RRE and pRSV-Rev using the Genejuice™ transfection reagent (Novagen) in accordance with the manufacturer's instructions. 24 h later, 3 × 10^5 effector cells were added to 7 × 10^5 untransfected HeLa target cells in six-well dishes (Nunc). Where appropriate, the co-culture was incubated in the presence of peptides at the concentrations specified. To assess the ability of the peptides to inhibit fusion induced by virally expressed BLV envelope, 2 × 10^5 BLV-infected FLK cells were used as effectors and added to 8 × 10^5 uninfected HeLa cells. After incubation at 37°C for 16 h, cells were washed twice with PBS and fixed in PBS + 3% paraformaldehyde. Assays were performed in triplicate and the number of syncytia (defined as multinucleated cells with 4 or more nuclei) from 10 low-power fields (LPF) per replicate was scored by light microscopy; some assays were stained using Giemsa. A syncytium formation value of 100% is defined as the number of syncytia formed in the absence of peptide but in the presence of 1.5% DMSO.

[2] = system: virally expressed BLV envelope (BLV-infected FLK cells); conditions: chronically BLV infected FLK effector cells + HeLa target cells; result in words (Figure 3C)
Method: as §1

[3] = result in words, concentration not given (Figures 3B, 4A, 4C)
[4] = up to 20 μM, result in words (Figure 4D)

CC[C@H](C)[C@H](NC(=O)[C@H](CO)NC(C)=O)C(=O)N[C@H](C(=O)N[C@@H](CCCNC(=N)N)C(=O)N[C@@H](CC(C)C)C(=O)NCC(=O)N[C@@H](CC(=O)O)C(=O)N[C@@H](CC(C)C)C(=O)N[C@@H](CCC(N)=O)C(=O)N1CCC[C@H]1C(=O)N[C@@H](CC(C)C)C(=O)N[C@@H](CO)C(=O)N[C@@H](CCC(N)=O)C(=O)N[C@@H](CCCNC(=N)N)C(=O)N[C@H](C(=O)N[C@@H](CO)C(=O)N[C@H](C(=O)N[C@@H](CC(=O)O)C(=O)N[C@@H](Cc1c[nH]c2ccccc12)C(=O)N[C@@H](CCC(N)=O)C(N)=O)[C@@H](C)O)C(C)C)[C@@H](C)CC [P^BLV-ΔN] (Ac-SIIRLGDLQPLSQRVSTDWQ-NH2)
solubility kinetic at 1 h [1]: > 90 µM | Inhibition of BLV Env-induced membrane fusion (BLV envelope; [3]): lacked detectable inhibitory activity

CC[C@H](C)[C@H](NC(=O)[C@H](CCCNC(=N)N)NC(=O)[C@H](CC(C)C)NC(C)=O)C(=O)N[C@@H](CCC(N)=O)C(=O)N[C@@H](CC(N)=O)C(=O)N[C@@H](CC(=O)O)C(=O)N[C@@H](CO)C(=O)N[C@H](C(=O)N[C@H](C(=O)N[C@@H](CCCNC(=N)N)C(=O)N[C@@H](CC(C)C)C(=O)NCC(=O)N[C@@H](CC(=O)O)C(=O)N[C@@H](CC(C)C)C(=O)N[C@@H](CCC(N)=O)C(=O)N1CCC[C@H]1C(=O)N[C@@H](CC(C)C)C(=O)N[C@@H](CO)C(=O)N[C@@H](CCC(N)=O)C(=O)N[C@@H](CCCNC(=N)N)C(=O)N[C@H](C(=O)N[C@@H](CO)C(=O)N[C@H](C(=O)N[C@@H](CC(=O)O)C(=O)N[C@@H](Cc1c[nH]c2ccccc12)C(=O)N[C@@H](CCC(N)=O)C(N)=O)[C@@H](C)O)C(C)C)[C@@H](C)CC)[C@@H](C)CC [P^BLV-ΔCCF] (Ac-LRIQNDSIIRLGDLQPLSQRVSTDWQ-NH2)
solubility kinetic at 1 h [1]: 11.2 µM (≈ 34.8 µg/mL) | inhibition at 30 µM (BLV envelope; HeLa, read-out: Inhibition of syncytium formation): 40% | Inhibition of BLV Env-induced membrane fusion (BLV envelope; peptide concentrations below 11 μM, where the peptide is soluble, result in words): fails to inhibit membrane fusion

CC[C@H](C)[C@H](NC(=O)[C@H](CCCNC(=N)N)NC(=O)[C@H](CC(C)C)NC(=O)[C@H](Cc1ccccc1)NC(=O)[C@H](CS)NC(=O)[C@H](CS)NC(C)=O)C(=O)N[C@@H](CCC(N)=O)C(=O)N[C@@H](CC(N)=O)C(=O)N[C@@H](CC(=O)O)C(=O)N[C@@H](CO)C(=O)N[C@H](C(=O)N[C@H](C(=O)N[C@@H](CCCNC(=N)N)C(=O)N[C@@H](C)C(=O)NCC(=O)N[C@@H](CC(=O)O)C(=O)N[C@@H](CC(C)C)C(=O)N[C@@H](CCC(N)=O)C(=O)N1CCC[C@H]1C(=O)N[C@@H](C)C(=O)N[C@@H](CO)C(=O)N[C@@H](CCC(N)=O)C(=O)N[C@@H](CCCNC(=N)N)C(=O)N[C@H](C(=O)N[C@@H](CO)C(=O)N[C@H](C(=O)N[C@@H](CC(=O)O)C(=O)N[C@@H](Cc1c[nH]c2ccccc12)C(=O)N[C@@H](CCC(N)=O)C(N)=O)[C@@H](C)O)C(C)C)[C@@H](C)CC)[C@@H](C)CC [P^BLV-L404/410A] (Ac-CCFLRIQNDSIIRAGDLQPASQRVSTDWQ-NH2)
solubility kinetic at 1 h [1]: > 90 µM | Inhibition of BLV Env-induced membrane fusion (BLV envelope; [4]): failed to display any fusion-blocking activity

CC[C@H](C)[C@H](NC(=O)[C@H](CCCNC(=N)N)NC(=O)[C@H](CC(C)C)NC(=O)[C@H](Cc1ccccc1)NC(=O)[C@H](CS)NC(=O)[C@H](CS)NC(C)=O)C(=O)N[C@@H](CCC(N)=O)C(=O)N[C@@H](CC(N)=O)C(=O)N[C@@H](CC(=O)O)C(=O)N[C@@H](CO)C(=O)N[C@H](C(=O)N[C@H](C(=O)N[C@@H](CCCNC(=N)N)C(=O)N[C@@H](CC(C)C)C(=O)NCC(=O)N[C@@H](CC(=O)O)C(=O)N[C@@H](CC(C)C)C(=O)N[C@@H](CCC(N)=O)C(=O)N1CCC[C@H]1C(=O)N[C@@H](CC(C)C)C(N)=O)[C@@H](C)CC)[C@@H](C)CC [P^BLV-ΔC] (Ac-CCFLRIQNDSIIRLGDLQPL-NH2)
solubility kinetic at 1 h [1]: > 90 µM | Inhibition of BLV Env-induced membrane fusion (BLV envelope; [3]): lacked detectable inhibitory activity

CC[C@H](C)[C@H](NC(=O)[C@H](CC(C)C)NC(=O)[C@H](CO)NC(=O)[C@H](Cc1c[nH]cn1)NC(=O)[C@@H](NC(=O)[C@H](CC(C)C)NC(=O)[C@H](CC(C)C)NC(=O)[C@H](CO)NC(=O)[C@@H](NC(=O)[C@H](Cc1ccc(O)cc1)NC(=O)[C@H](CC(N)=O)NC(=O)[C@H](CC(N)=O)NC(=O)[C@@H](NC(=O)[C@H](CCC(=O)O)NC(=O)[C@H](CCCNC(=N)N)NC(=O)[C@H](CC(=O)O)NC(=O)[C@H](Cc1c[nH]c2ccccc12)NC(=O)[C@H](CCC(=O)O)NC(=O)[C@H](CCSC)NC(=O)[C@H](Cc1c[nH]c2ccccc12)NC(=O)CNC(C)=O)[C@@H](C)CC)[C@@H](C)O)[C@@H](C)CC)C(=O)N[C@@H](CCC(=O)O)C(=O)N[C@@H](CCC(=O)O)C(=O)N[C@@H](CO)C(=O)N[C@@H](CCC(N)=O)C(=O)N[C@@H](CC(N)=O)C(=O)N[C@@H](CCC(N)=O)C(=O)N[C@@H](CCC(N)=O)C(=O)N[C@@H](CCC(=O)O)C(=O)N[C@@H](CCCCN)C(=O)N[C@@H](CC(N)=O)C(=O)N[C@@H](CCC(=O)O)C(=O)N[C@@H](CCC(N)=O)C(=O)N[C@@H](CCC(=O)O)C(=O)N[C@@H](CC(C)C)C(=O)N[C@@H](CC(C)C)C(N)=O [Peptide C34, reference compound] (Ac-GWMEWDREINNYTSLLIHSLIEESQNQQEKNEQELL-NH2)
solubility kinetic at 1 h [1]: > 90 µM | Inhibition of BLV Env-induced membrane fusion (BLV envelope; [3]): did not interfere

CC[C@H](C)[C@H](NC(=O)[C@H](CO)NC(=O)[C@@H](NC(=O)[C@H](Cc1c[nH]cn1)NC(=O)[C@H](CO)NC(=O)[C@H](CC(N)=O)NC(=O)[C@@H](NC(=O)[C@@H](NC(=O)[C@H](CC(N)=O)NC(=O)[C@H](CC(C)C)NC(=O)[C@H](Cc1ccccc1)NC(=O)[C@H](CS)NC(=O)[C@H](CS)NC(C)=O)[C@@H](C)CC)[C@@H](C)O)C(C)C)C(=O)N[C@@H](CC(C)C)C(=O)N[C@@H](CCC(N)=O)C(=O)N[C@@H](CCC(=O)O)C(=O)N[C@@H](CCCNC(=N)N)C(=O)N1CCC[C@H]1C(=O)N1CCC[C@H]1C(=O)N[C@@H](CC(C)C)C(=O)N[C@@H](CCC(=O)O)C(=O)N[C@@H](CC(N)=O)C(=O)N[C@@H](CCCNC(=N)N)C(=O)N[C@H](C(=O)N[C@@H](CC(C)C)C(=O)N[C@H](C(=O)NCC(=O)N[C@@H](Cc1c[nH]c2ccccc12)C(=O)NCC(=O)N[C@@H](CC(C)C)C(N)=O)[C@@H](C)O)C(C)C [P^cr-400, reference compound] (Ac-CCFLNITNSHVSILQERPPLENRVLTGWGL-NH2)
Inhibition of membrane fusion induced by virally expressed BLV envelope [2]: did not block | solubility kinetic at 1 h [1]: > 90 µM | Inhibition of membrane fusion induced by BLV envelope (BLV envelope; concentrations up to 15 μM and above, result in words): failed to inhibit

CC[C@H](C)[C@H](NC(=O)[C@H](CCCNC(=N)N)NC(=O)[C@H](C)NC(=O)[C@H](Cc1ccccc1)NC(=O)[C@H](CS)NC(=O)[C@H](CS)NC(C)=O)C(=O)N[C@@H](CCC(N)=O)C(=O)N[C@@H](CC(N)=O)C(=O)N[C@@H](CC(=O)O)C(=O)N[C@@H](CO)C(=O)N[C@H](C(=O)N[C@H](C(=O)N[C@@H](CCCNC(=N)N)C(=O)N[C@@H](C)C(=O)NCC(=O)N[C@@H](CC(=O)O)C(=O)N[C@@H](C)C(=O)N[C@@H](CCC(N)=O)C(=O)N1CCC[C@H]1C(=O)N[C@@H](C)C(=O)N[C@@H](CO)C(=O)N[C@@H](CCC(N)=O)C(=O)N[C@@H](CCCNC(=N)N)C(=O)N[C@H](C(=O)N[C@@H](CO)C(=O)N[C@H](C(=O)N[C@@H](CC(=O)O)C(=O)N[C@@H](Cc1c[nH]c2ccccc12)C(=O)N[C@@H](CCC(N)=O)C(N)=O)[C@@H](C)O)C(C)C)[C@@H](C)CC)[C@@H](C)CC [P^BLV-L/A] (Ac-CCFARIQNDSIIRAGDAQPASQRVSTDWQ-NH2)
solubility kinetic at 1 h [1]: 45 µM (≈ 148 µg/mL) | Inhibition of BLV Env-induced membrane fusion (BLV envelope; [4]): did not exhibit any discernible inhibition

CC[C@H](C)[C@H](NC(=O)[C@H](CO)NC(=O)[C@@H](NC(=O)[C@H](Cc1c[nH]cn1)NC(=O)[C@H](CO)NC(=O)[C@H](CC(N)=O)NC(=O)[C@@H](NC(=O)[C@@H](NC(=O)[C@H](CC(N)=O)NC(=O)[C@H](C)NC(=O)[C@H](Cc1ccccc1)NC(=O)[C@H](CS)NC(=O)[C@H](CS)NC(C)=O)[C@@H](C)CC)[C@@H](C)O)C(C)C)C(=O)N[C@@H](C)C(=O)N[C@@H](CCC(N)=O)C(=O)N[C@@H](CCC(=O)O)C(=O)N[C@@H](CCCNC(=N)N)C(=O)N1CCC[C@H]1C(=O)N1CCC[C@H]1C(=O)N[C@@H](C)C(=O)N[C@@H](CCC(=O)O)C(=O)N[C@@H](CC(N)=O)C(=O)N[C@@H](CCCNC(=N)N)C(=O)N[C@H](C(=O)N[C@@H](C)C(=O)N[C@H](C(=O)NCC(=O)N[C@@H](Cc1c[nH]c2ccccc12)C(=O)NCC(=O)N[C@@H](C)C(N)=O)[C@@H](C)O)C(C)C [P^cr-400 L/A, reference compound] (Ac-CCFANITNSHVSIAQERPPAENRVATGWGA-NH2)
solubility kinetic at 1 h [1]: 45 µM (≈ 146 µg/mL) | Inhibition of BLV Env-induced membrane fusion (BLV envelope; [3]): did not interfere
